Key:
Saccharomyces cerevisiae [1] = assay: In vitro inhibitory activity of Beta-1,3-glucan synthase of Saccharomyces cerevisiae at concentration of 200 ug/ml
Saccharomyces cerevisiae [2] = assay: In vitro inhibitory activity of Beta-1,3-glucan synthase of Saccharomyces cerevisiae at concentration of 50 ug/ml
Saccharomyces cerevisiae [3] = assay: In vitro inhibitory activity of Beta-1,3-glucan synthase of Saccharomyces cerevisiae at concentration of 12.5 ug/ml
Saccharomyces cerevisiae [4] = assay: In vitro inhibitory activity of Beta-1,3-glucan synthase of Saccharomyces cerevisiae at concentration of 25 ug/ml
Phytophthora capsici = assay: Minimum amount required to induce hyphal malformation in Phytophthora capsici; assay type: functional
Saccharomyces cerevisiae [5] = assay: In vitro inhibitory activity of Beta-1,3-glucan synthase of Saccharomyces cerevisiae at concentration of 800 ug/ml
Saccharomyces cerevisiae [6] = assay: In vitro inhibitory activity of Beta-1,3-glucan synthase of Saccharomyces cerevisiae at concentration of 100 ug/ml
Saccharomyces cerevisiae [7] = assay: In vitro inhibitory activity of Beta-1,3-glucan synthase of Saccharomyces cerevisiae at concentration of 400 ug/ml

C[C@H]1C(=O)C(CO)=C[C@H](O)[C@H]1O
inhibition (Saccharomyces cerevisiae [1]): 75%
inhibition (Saccharomyces cerevisiae [2]): 47%
inhibition (Saccharomyces cerevisiae [3]): 12%
inhibition (Saccharomyces cerevisiae [4]): 30%
Activity (Phytophthora capsici): 100 ug disk-1
inhibition (Saccharomyces cerevisiae [5]): 91%
inhibition (Saccharomyces cerevisiae [6]): 66%
inhibition (Saccharomyces cerevisiae [7]): 85%

C[C@H]1CCC/C=C/[C@@H]2C[C@H](O)C[C@H]2[C@H](O)/C=C/C(=O)O1 [BREFELDIN A]
inhibition (Saccharomyces cerevisiae [1]): 0%
inhibition (Saccharomyces cerevisiae [2]): 0%
inhibition (Saccharomyces cerevisiae [3]): 0%
inhibition (Saccharomyces cerevisiae [4]): 0%
Activity (Phytophthora capsici): 50 ug disk-1
inhibition (Saccharomyces cerevisiae [5]): 0%
inhibition (Saccharomyces cerevisiae [6]): 0%
inhibition (Saccharomyces cerevisiae [7]): 6%

CC(C)=C[C@H]1C[C@H](C)[C@]2(CC[C@]3(C)C[C@H]4[C@H](C(=O)C[C@@]4(C)O)/C(C=O)=C\C[C@H]32)O1 [OPHIOBOLIN A]
inhibition (Saccharomyces cerevisiae [1]): 79%
inhibition (Saccharomyces cerevisiae [2]): 56%
inhibition (Saccharomyces cerevisiae [3]): 31%
inhibition (Saccharomyces cerevisiae [4]): 56%
Activity (Phytophthora capsici): 10 ug disk-1
inhibition (Saccharomyces cerevisiae [5]): 89%
inhibition (Saccharomyces cerevisiae [6]): 74%
inhibition (Saccharomyces cerevisiae [7]): 84%
